US20090220425A1, “Method to Quantitatively Measure Effect of Psychotropic Drugs on Sensory Discrimination” (DREXEL UNIVERSITY, priority 2006, published 2009)

Columns and labels:
[1] = system: ensemble of neurons in the deep layers of the forelimb rat primary somatosensory cortex; experiment: PSTH-based classification of stimulus location from single-trial responses of neuron ensembles (information representation); assay type: in vivo; details: for classification performance (bits of information) after drug compared to saline: one ensemble of neurons, touch-stimuli to contralateral body, every bin size tested, FIGS. 1A and 1B
[2] = system: neurons of the infragranular layer of the primary somatosensory cortex of the rat; experiment: Classical neurophysiological measures of somatosensory responses (sensory mapping, magnitude and latency of neural responses to touch stimuli) before and after drug; assay type: in vivo

For `Clc1cccc(N2CCNCC2)c1` [MCPP, meta-chlorophenylpiperazine], the “classification performance (bits of information) after drug compared to saline” value [1] was “increase for every bin size tested” and the “effectiveness of the low dose” value ([2]; MCPP 0.075 (low) mg/kg, intraperitoneal (IP), dissolved in saline) was “effective”.

With `CNCCC(Oc1ccc(C(F)(F)F)cc1)c1ccccc1` (stereo not shown) [fluoxetine] the “amount of information represented by the ensemble after administration” value ([1]; binsize from 40 ms (spike-count) to 1 ms (spike-timing), single-trial discrimination of stimulus location) was “greater”, the “classification performance (bits of information) after drug compared to saline” value [1] was “increased for every bin size tested” and the “effectiveness of the medium dose” value ([2]; FLU 10 (medium) mg/kg, IP injection, dissolved in saline) was “effective”. The “number of spikes per stimulus after drug” value ([2]; fluoxetine 10 mg/kg, two rats, 0.67 spikes per stimulus before drug, significant increase, p<0.001) was 1.05 spikes per stimulus and the “latency of the response after drug” value ([2]; fluoxetine 10 mg/kg, two rats, 20 msec before drug, decrease did not reach significance (p=0.11)) was 17.5 ms.
